# In ChEMBL document CHEMBL1201862, “PubChem BioAssay data set” (2004):
#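 Compound exposure: 48 hours, 5 concentrations, 96-well plates. Here, GI50 denotes the concentration required for 50% inhibition of growth.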 The source made the active and inactive calls. Cut-off read from the data, not from the text of the source: active = GI50 up to about 1.1 µM and inactive = higher.
# Key:
# Assay in all cases: DTP human tumour cell line panel, 48 h
# NCI-H460 = system: NCI-H460
# TK-10 = system: TK-10
# MCF7 = system: MCF7
# T47D = system: T47D
# SNB-19 = system: SNB-19
# BT-549 = system: BT-549
# OVCAR-3 = system: OVCAR-3
# SF-295 = system: SF-295
# NCI-H226 = system: NCI-H226
# K562 = system: K562
# DU-145 = system: DU-145
# SW-620 = system: SW-620
# HOP-62 = system: HOP-62
# HCT-116 = system: HCT-116
# HOP-92 = system: HOP-92
# XF498 = system: XF498
# DLD-1 = system: DLD-1
# MDA-MB-231 = system: MDA-MB-231
# HCT-15 = system: HCT-15
# NCI-H23 = system: NCI-H23
# SK-OV-3 = system: SK-OV-3
# SR = system: SR
# U-251 = system: U-251
# 786-0 = system: 786-0
# MDA-MB-435 = system: MDA-MB-435
# NCI-H522 = system: NCI-H522
# LOX IMVI = system: LOX IMVI
# A549 = system: A549
# KM12 = system: KM12
# M14 = system: M14
# Malme-3M = system: Malme-3M
# OVCAR-4 = system: OVCAR-4
# RXF 393 = system: RXF 393
# SN12C = system: SN12C
# ACHN = system: ACHN
# MOLT-4 = system: MOLT-4
# UO-31 = system: UO-31
# SK-MEL-2 = system: SK-MEL-2
# CAKI-1 = system: CAKI-1
# LXFL 529 = system: LXFL 529
# MDA-N = system: MDA-N
# IGROV-1 = system: IGROV-1
# SF-268 = system: SF-268
# SK-MEL-28 = system: SK-MEL-28
# Hs-578T = system: Hs-578T
# PC-3 = system: PC-3
# HOP-18 = system: HOP-18
# SK-MEL-5 = system: SK-MEL-5
# HL-60 = system: HL-60
# DMS-273 = system: DMS-273
# EKVX = system: EKVX
# OVCAR-5 = system: OVCAR-5
# KM-20L2 = system: KM-20L2
# CCRF-CEM = system: CCRF-CEM
# UACC-257 = system: UACC-257
# SNB-78 = system: SNB-78
# SNB-75 = system: SNB-75
# RPMI-8226 = system: RPMI-8226
# HCC 2998 = system: HCC 2998
# OVCAR-8 = system: OVCAR-8
# COLO 205 = system: COLO 205
# SF-539 = system: SF-539
# A498 = system: A498
# NCI/ADR-RES = system: NCI/ADR-RES
# UACC-62 = system: UACC-62
# HT-29 = system: HT-29
# DMS-114 = system: DMS-114
# M19-MEL = system: M19-MEL
structure (smiles),measurement,setting,value
N=c1nc2n(cc1F)[C@@H]1O[C@H](CO)[C@@H](O)[C@@H]1O2,GI50,NCI-H460,0.286 µM (active)
same,GI50,TK-10,> 75.5 µM (inactive)
same,GI50,MCF7,1.14 µM (inactive)
same,GI50,T47D,18.4 µM (inactive)
same,GI50,SNB-19,> 92.9 µM (inactive)
same,GI50,BT-549,> 100 µM (inactive)
same,GI50,OVCAR-3,9.1 µM (inactive)
same,GI50,SF-295,49.9 µM (inactive)
same,GI50,NCI-H226,17.3 µM (inactive)
same,GI50,K562,4.33 µM (inactive)
same,GI50,DU-145,0.971 µM (active)
same,GI50,SW-620,> 20.5 µM (inactive)
same,GI50,HOP-62,2.36 µM (inactive)
same,GI50,HCT-116,1.31 µM (inactive)
same,GI50,HOP-92,11.3 µM (inactive)
same,GI50,XF498,> 100 µM (inactive)
same,GI50,DLD-1,1.44 µM (inactive)
same,GI50,MDA-MB-231,> 100 µM (inactive)
same,GI50,HCT-15,> 90.2 µM
same,GI50,NCI-H23,2.29 µM (inactive)
same,GI50,SK-OV-3,8.55 µM (inactive)
same,GI50,SR,0.424 µM (active)
same,GI50,U-251,24.8 µM (inactive)
same,GI50,786-0,4.46 µM (inactive)
same,GI50,MDA-MB-435,0.658 µM (active)
same,GI50,NCI-H522,4.18 µM (inactive)
same,GI50,LOX IMVI,1.06 µM (active)
same,GI50,A549,0.335 µM (active)
same,GI50,KM12,> 100 µM (inactive)
same,GI50,M14,1.45 µM (inactive)
same,GI50,Malme-3M,9.42 µM (inactive)
same,GI50,OVCAR-4,> 100 µM (inactive)
same,GI50,RXF 393,> 40.7 µM (inactive)
same,GI50,SN12C,14.4 µM (inactive)
same,GI50,ACHN,2.12 µM (inactive)
same,GI50,MOLT-4,0.0336 µM (active)
same,GI50,UO-31,24.6 µM (inactive)
same,GI50,SK-MEL-2,> 100 µM (inactive)
same,GI50,CAKI-1,3.45 µM (inactive)
same,GI50,LXFL 529,> 26.5 µM (inactive)
same,GI50,MDA-N,> 100 µM (inactive)
same,GI50,IGROV-1,47.4 µM (inactive)
same,GI50,SF-268,4.22 µM (inactive)
same,GI50,SK-MEL-28,> 63.7 µM (inactive)
same,GI50,Hs-578T,> 100 µM (inactive)
same,GI50,PC-3,> 100 µM (inactive)
same,GI50,HOP-18,13.4 µM (inactive)
same,GI50,SK-MEL-5,35.4 µM (inactive)
same,GI50,HL-60,0.317 µM (active)
same,GI50,DMS-273,3.63 µM (inactive)
same,GI50,EKVX,> 100 µM (inactive)
same,GI50,OVCAR-5,> 100 µM (inactive)
same,GI50,KM-20L2,2.99 µM (inactive)
same,GI50,CCRF-CEM,< 0.0122 µM (active)
same,GI50,UACC-257,> 23.6 µM (inactive)
same,GI50,SNB-78,62.2 µM (inactive)
same,GI50,SNB-75,> 70.6 µM (inactive)
same,GI50,RPMI-8226,56.9 µM (inactive)
same,GI50,HCC 2998,> 56 µM (inactive)
same,GI50,OVCAR-8,1.04 µM (active)
same,GI50,COLO 205,14 µM (inactive)
same,GI50,SF-539,53 µM (inactive)
same,GI50,A498,13.4 µM (inactive)
same,GI50,NCI/ADR-RES,9.59 µM (inactive)
same,GI50,UACC-62,> 92.5 µM (inactive)
same,GI50,HT-29,34.4 µM (inactive)
C[N+](C)(C)CC1CCC/C1=N\OC(=O)c1ccccc1 (configuration not stated),GI50,DMS-114,> 100 µM (inactive)
same,GI50,SNB-19,> 100 µM (inactive)
same,GI50,OVCAR-3,> 100 µM (inactive)
same,GI50,SF-295,> 100 µM (inactive)
same,GI50,NCI-H226,> 100 µM (inactive)
same,GI50,K562,> 100 µM (inactive)
same,GI50,SW-620,> 100 µM (inactive)
same,GI50,HOP-62,> 100 µM (inactive)
same,GI50,HCT-116,> 100 µM (inactive)
same,GI50,XF498,> 100 µM (inactive)
same,GI50,DLD-1,> 100 µM (inactive)
same,GI50,HCT-15,> 100 µM
same,GI50,NCI-H23,> 100 µM (inactive)
same,GI50,SK-OV-3,> 100 µM (inactive)
same,GI50,SR,> 100 µM (inactive)
same,GI50,U-251,> 100 µM (inactive)
same,GI50,M19-MEL,> 100 µM (inactive)
same,GI50,786-0,> 100 µM (inactive)
same,GI50,NCI-H522,> 100 µM (inactive)
same,GI50,LOX IMVI,> 100 µM (inactive)
same,GI50,A549,> 100 µM (inactive)
same,GI50,KM12,> 100 µM (inactive)
same,GI50,M14,> 100 µM (inactive)
same,GI50,Malme-3M,> 100 µM (inactive)
same,GI50,OVCAR-4,> 100 µM (inactive)
same,GI50,RXF 393,> 100 µM (inactive)
same,GI50,SN12C,> 100 µM (inactive)
same,GI50,ACHN,> 100 µM (inactive)
same,GI50,MOLT-4,> 100 µM (inactive)
same,GI50,UO-31,> 100 µM (inactive)
same,GI50,SK-MEL-2,> 100 µM (inactive)
same,GI50,LXFL 529,> 100 µM (inactive)
same,GI50,IGROV-1,> 100 µM (inactive)
same,GI50,SF-268,> 100 µM (inactive)
same,GI50,SK-MEL-28,> 100 µM (inactive)
same,GI50,HOP-18,> 100 µM (inactive)
same,GI50,SK-MEL-5,> 100 µM (inactive)
same,GI50,HL-60,> 100 µM (inactive)
same,GI50,EKVX,> 100 µM (inactive)
same,GI50,KM-20L2,> 100 µM (inactive)
same,GI50,CCRF-CEM,> 100 µM (inactive)
same,GI50,UACC-257,> 100 µM (inactive)
same,GI50,SNB-78,> 100 µM (inactive)
same,GI50,SNB-75,> 100 µM (inactive)
same,GI50,RPMI-8226,> 100 µM (inactive)
same,GI50,OVCAR-8,> 100 µM (inactive)
same,GI50,COLO 205,> 100 µM (inactive)
same,GI50,SF-539,> 100 µM (inactive)
same,GI50,A498,> 100 µM (inactive)
same,GI50,UACC-62,> 100 µM (inactive)
same,GI50,HT-29,> 100 µM (inactive)
